Experiments:
Type in all cases: in vivo
[1] = tested on: Swiss ICR albino mice; assay: Thermal analgesia, hot-plate technique at 55° C.; details: for Jumping time (mean ± S.E.M.): 30 mg/kg, intraperitoneal, 30 minutes, hot-plate 55° C., control 50.1 ± 3.16
Procedure: The thermal analgesia effect was studied in Swiss ICR albino mice. The hot-plate technique at 55° C. was used. The […] were divided into batches of 10.
The products being studied were administered intraperitoneally and after 30 minutes the animals were placed on the hot-plate, the time in seconds being counted until the animals started to jump. Batches of control animals which had received injections of distilled water only were used.

[2] = tested on: Swiss ICR mice; assay: Acute toxicity, intraperitoneal (Litchfield-Wilcoxon); details: Swiss ICR mice of both sexes, 25 ± 2 g
Procedure: (§1) Acute toxicity studies were made in Swiss ICR mice of both sexes weighing 25 ± 2 g. The products were administered intraperitoneally. Acute toxicity calculations were made by the Litchfield-Wilcoxon method.

[3] = as above; details: mouse, in vivo, ip, Swiss ICR mice of both sexes, 25 ± 2 g, read-out: Lethal Dose 50 (LD50)
Procedure: as §1

[4] = tested on: Swiss ICR albino mice; assay: Chemical analgesia, acetic acid writhing technique
Procedure: The analgesic effect was studied in Swiss ICR albino mice using the acetic acid writhing technique. The animals were divided into batches of 10.
The products studied were administered intraperitoneally and after 30 minutes 0.25 ml of 1% acetic acid was injected intraperitoneally. A batch of control animals was given only the acetic acid. The number of writhings made by each mouse in the 20 minutes after the administration of the acetic acid was counted.

Row | SMILES | Jumping time (mean ± S.E.M.) [1] [s] | Lethal Dose 50 (LD50) [2] [mg/kg] | thermal analgesic activity ([1]; conclusion in words) | LD50 [3] [mg/kg] | No. of writhings (mean ± S.E.M.) ([4]; 30 mg./kg., intraperitoneal, 30 minutes before acetic acid, counted over 20 minutes, control 93) | chemical analgesic activity ([4]; conclusion in words, compared with dextropropoxyphene)
1 | CCC(=O)O[C@](Cc1ccccc1)(c1ccccc1)[C@H](C)CN(C)C [Dextropropoxyphene, dextropropoxyphene, reference compound] | 91 ± 17.17 | 140 |  |  |  | 
2 | COc1cc(C(O)C2CC(C)=CCN2C)cc(OC)c1OC (stereo not shown) [Product VIII, 3,4,5-trimethoxyphenyl-(1,4-dimethyl-1,2,3,6-tetrahydro-2-pyridyl)-carbinol] | 51.8 ± 5.46 |  | lacks thermal analgesic activity | 201 | 58.8 ± 10.2 | same intensity as dextropropoxyphene
